# From patent US12594282B2, “Use of small molecule compounds in the treatment of diseases mediated by lung epithelial cell injury and/or vascular endothelial cell injury” (Guangzhou Cellprotek Pharmaceutical Co., Ltd., priority 2020, dated 2026)
# Tested on: NR4A3 mRNA
# Test: NR4A3 mRNA under OGD-R, HUVEC (real-time fluorescent quantitative PCR)
# Assay type: cell-based, human
# Conditions: 10 μM given at restoration
# Protocol: HUVEC cells were cultured in modified DMEM medium containing 10% fetal bovine serum. When the cells reached about 80% confluence, the cells were digested with 0.25% trypsin, and then pipetted evenly with modified DMEM containing 10% […]. The cell concentration was adjusted to 1×10^5 cells/mL, and the cells were seeded at 400 uL/well in a 24-well plate, and the experiment was carried out when the cells grew to about 70% confluence. RAOEC cells were cultured in high-glucose DMEM medium containing 10% fetal bovine serum, and the seeding conditions were the same as those of HUVEC. During the OGD-R injury treatment, the hypoxia workstation was set to have an oxygen concentration of 1% (1% O2, 5% CO2, 94% N2), a temperature of 37° C., and a humidity of 85%. A sugar-free DMEM medium was placed in the hypoxia workstation for pre-hypoxia for 3 hours. The medium in the culture plate was aspirated, and the plate was washed twice with preheated sugar-free DMEM medium, and 100 uL of sugar-free DMEM medium was added to each well. The culture plate was placed in the hypoxia workstation, and 300 uL of pre-hypoxic sugar-free DMEM medium was added to each well, and then the culture plate was placed in the hypoxia workstation for additional hypoxia for 4 hours. Restoration was then performed. […]
structure (smiles),measurement,value
"C[C@@]12CCCC1C1C[C@@H](O)[C@]3(O)C[C@@H](O)CC[C@]3(C)C1CC2 (stereo partly drawn) [YC-6, 5α-androst-3β,5,6β-triol]",transcription level of NR4A3 (relative mRNA expression),did not significantly up-regulate the transcription level of NR4A3
